Assays:
CDK4/CyclinD1 = CDK4/CyclinD1 (Homo sapiens, UniProt P11802); assay: CDK4/cyclinD1 kinase assay (Nanosyn, Caliper microfluidic kinase detection); type: biochemical; details: Table 2; 12-point dose-response, ATP at Km (200 μM), 10 hr; read-out: CDK4/CycD1 IC50
Method: The assays were performed using microfluidic kinase detection technology (Caliper Assay Platform). The compounds were tested in 12-point dose-response format in singlicate at Km for ATP. Phosphoacceptor substrate peptide concentration used was 1 μM for all assays and Staurosporine was used as the reference compound for all assays. Specifics of each assay are as described below:
CDK4/CyclinD1: Enzyme concentration: 1 nM; ATP concentration: 200 μM; Incubation time: 10 hr.

HS68 cells = assay: G1 arrest (cellular G1 and S-phase) assay, propidium iodide flow cytometry; type: cell-based, human; details: Homo sapiens, Hs68, HS68 cells
Method: HS68 cells (human skin fibroblast cell line (Rb-positive)) were stained with propidium iodide staining solution and run on Dako Cyan Flow Cytometer. The fraction of cells in G0-G1 DNA cell cycle versus the fraction in S-phase DNA cell cycle was determined using FlowJo 7.2.2 analysis.
The compounds listed in Table 1 were tested for their ability to arrest HS68 cells at the G1 phase of the cell cycle.

[1] = tested on: MCF7 (breast adenocarcinoma, Rb-positive); assay: Cellular proliferation assay (CellTiter-Glo), MCF7; type: cell-based; details: Homo sapiens, MCF7, 144 h, cell viability after six days
Method: (§1) Further cellular proliferation assays were conducted using the following cancer cell lines: MCF7 (breast adenocarcinoma—Rb-positive), ZR-75-1 (breast ductal carcinoma—Rb-positive), H69 (human small cell lung cancer—Rb-negative) cells, or A2058 (human metastatic melanoma cells—Rb-negative). These cells were seeded in Costar (Tewksbury, Massachusetts) 3093 96 well tissue culture treated white walled/clear bottom plates. Cells were treated with the compounds of Table 1 as nine point dose response dilution series from 10 uM to 1 nM. Cells were exposed to compounds and then cell viability was determined after either four (H69) or six (MCF7, ZR75-1, A2058) days as indicated using the CellTiter-Glo® luminescent cell viability assay (CTG; Promega, Madison, Wisconsin, United States of America) following the manufacturer's recommendations. Plates were read on BioTek (Winooski, Vermont) Syngergy2 multi-mode plate reader. The Relative Light Units (RLU) were plotted as a result of variable molar concentration and data was analyzed using Graphpad (LaJolla, California) Prism 5 statistical software to determine the EC50 for each compound.

[2] = tested on: ZR-75-1 (breast ductal carcinoma, Rb-positive); assay: Cellular proliferation assay (CellTiter-Glo), ZR-75-1; type: cell-based; details: Homo sapiens, ZR-75-1, 144 h, cell viability after six days, read-out: ZR75-1 Cellular EC50
Method: as §1

[3] = tested on: H69 (human small cell lung cancer, Rb-negative) cells; assay: Cellular proliferation assay (CellTiter-Glo), H69; type: cell-based; details: NCI-H69, 96 h, cell viability after four days
Method: as §1

[4] = tested on: A2058 (human metastatic melanoma cells, Rb-negative); assay: Cellular proliferation assay (CellTiter-Glo), A2058; type: cell-based; details: A2058, 144 h, cell viability after six days
Method: as §1

[5] = Mouse pharmacokinetics (oral gavage / intravenous); type: in vivo, mice; details: for AUC 0-inf (uM * h) i.v.: 10 mg/kg intravenous injection; for AUC (uM * h) p.o. / Cmax / Tmax (h) p.o. / t1/2 (h) p.o.: 30 mg/kg oral gavage
[6] = tested on: small cell lung cancer cell lines; details: Hamilton et al., cited from earlier work; for cytotoxic / chemosensitizing effect in combination with various camptothecin derivatives (in words): Molecules (2014), rubitecan, 9AC, topotecan, SN38, CPT109; for cytotoxic effect in combination with topotecan (in words): Journal of Cancer Therapy (2013)
[7] = tested on: NCI-H69 SCLC xenograft (Rb-negative); type: in vivo
Source text: An Rb-negative model of small cell lung cancer was used in the following example. Briefly, xenografts of National Cancer Institute (NCI) […] cells were grafted onto the mice (Athymic Nude (Crl:NU(NCr)-Foxn1^nu); 6-12 week old females) using the South Texas Accelerated Research Therapeutics (START) Cell-Based Xenograft (START-CBX) tumor model. H69 cells are human small cell lung cancer cells and are Rb-negative.
Data collected from the efficacy study included animal weights, observations and tumor dimensions. This information was used to determine agent tolerability based on weight change and gross physiologic changes and anticancer activity based on tumor growth delay or regression. The designated endpoint for this study was an individual tumor volume of 1 cm^3 or 60 days following treatment initiation.
Tumor fragments from NCI-H69 were harvested from host animals and implanted into immune-deficient mice and the study initiated at a mean tumor volume of approximately 150-250 mm^3.
Additional details of the study are outlined in Table 6 below. […] Tumor size was examined twice per week and the endpoint for this study was Day 59.

[8] = Group 6: Compound T vehicle and topotecan 0.6 mg/kg IP qdx5x4

Chain of CDK4/CyclinD1 (P11802 whole entry, species assumed): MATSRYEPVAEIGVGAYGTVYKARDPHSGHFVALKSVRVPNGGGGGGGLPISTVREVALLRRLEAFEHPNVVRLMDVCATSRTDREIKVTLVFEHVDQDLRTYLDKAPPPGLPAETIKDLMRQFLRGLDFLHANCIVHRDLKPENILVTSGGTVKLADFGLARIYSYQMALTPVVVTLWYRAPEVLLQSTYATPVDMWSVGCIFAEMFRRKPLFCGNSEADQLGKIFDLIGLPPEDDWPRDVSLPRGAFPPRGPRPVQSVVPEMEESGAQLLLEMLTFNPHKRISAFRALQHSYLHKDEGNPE
Chain of CDK4/CyclinD1 (P24385 whole entry partner, species assumed): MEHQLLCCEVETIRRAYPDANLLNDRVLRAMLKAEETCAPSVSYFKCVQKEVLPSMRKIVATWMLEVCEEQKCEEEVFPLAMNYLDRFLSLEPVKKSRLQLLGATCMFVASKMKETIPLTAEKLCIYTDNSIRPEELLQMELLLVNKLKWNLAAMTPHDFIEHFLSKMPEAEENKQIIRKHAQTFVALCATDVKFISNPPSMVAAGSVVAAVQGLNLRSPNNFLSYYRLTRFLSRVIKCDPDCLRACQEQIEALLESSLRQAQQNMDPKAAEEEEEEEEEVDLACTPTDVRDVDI

Row | Compound | IC50 (CDK4/CyclinD1) | EC50 (HS68 cells) | EC50 [1] | EC50 [2] | EC50 [3] | EC50 [4] | further results
1 | CC(C)N1CCN(c2ccc(Nc3ncc4cc5n(c4n3)C3(CCCCC3)CNC5=O)nc2)C[C@@H]1C [AA] | 0.5 nM | 70 nM | 47 nM | 47 nM | > 3000 nM |  | 
2 | C[C@H](O)CN1CCN(c2ccc(Nc3ncc4cc5n(c4n3)C3(CCCCC3)CNC5=O)nc2)CC1 [A] | 4.2 nM | 110 nM | 75 nM | 44 nM | > 3000 nM |  | 
3 | CCN(CC)C1CCN(c2ccc(Nc3ncc4cc5n(c4n3)C3(CCCCC3)CNC5=O)nc2)CC1 [CC] | 1.6 nM | 90 nM | 50 nM | 38 nM | > 3000 nM | > 3000 nM | 
4 | O=C1NCC2(CCCCC2)n2c1cc1cnc(Nc3ccc(N4CCNCC4)cn3)nc12 [Compound Q] |  | 100 nM | 49 nM | 35 nM | > 3000 nM | 2610 nM | AUC 0-inf (uM * h) i.v. [5]: 0.95 µM·h; AUC (uM * h) p.o. [5]: 0.15 µM·h; Cmax [5]: 0.16 µM; Tmax (h) p.o. [5]: 0.5 h; t1/2 (h) p.o. [5]: 0.8 h
5 | O=C1NCC2(CCCCC2)n2c1cc1cnc(Nc3ccc(N4CCC(N5CCOCC5)CC4)cn3)nc12 [Compound U] |  | 25 nM | 70 nM | 59 nM | > 3000 nM | > 3000 nM | AUC 0-inf (uM * h) i.v. [5]: 0.76 µM·h; AUC (uM * h) p.o. [5]: 3.3 µM·h; Cmax [5]: 4.2 µM; Tmax (h) p.o. [5]: 0.5 h; t1/2 (h) p.o. ([5]; 30 mg/kg): 3 h
6 | CN1CCN(c2ccc(Nc3ncc4cc5n(c4n3)C3(CCCCC3)CNC5=O)nc2)CC1(C)C [D] | 0.9 nM | 50 nM | 57 nM | 46 nM | 2910 nM | 1670 nM | 
7 | CC(C)C1CN(c2ccc(Nc3ncc4cc5n(c4n3)C3(CCCCC3)CNC5=O)nc2)CCN1 (centres unmarked) [E] | 1 nM | 75 nM | 53 nM | 62 nM | 2580 nM | 1370 nM | 
8 | CC1(C)CN(c2ccc(Nc3ncc4cc5n(c4n3)C3(CCCCC3)CNC5=O)nc2)CCN1CC1CC1 [H] | 1.5 nM | 85 nM | 85 nM | 120 nM | 2040 nM | 1310 nM | 
9 | CC(C)N1CCN(C(=O)c2ccc(Nc3ncc4cc5n(c4n3)C3(CCCCC3)CNC5=O)nc2)CC1 [II] | 2 nM | 40 nM | 94 nM | 33 nM | > 3000 nM | > 3000 nM | 
10 | CC1(C)CN(c2ccc(Nc3ncc4cc5n(c4n3)C3(CCCCC3)CNC5=O)nc2)CCN1 [I] | 2 nM | 80 nM | 61 nM | 40 nM | 2950 nM | 1060 nM | 
11 | C[C@@H]1CN(c2ccc(Nc3ncc4cc5n(c4n3)C3(CCCCC3)CNC5=O)nc2)CCN1C[C@@H](C)O [J] |  | 110 nM | 70 nM | 82 nM | > 3000 nM | > 3000 nM | 
12 | CCOCCN1CCN(c2ccc(Nc3ncc4cc5n(c4n3)C3(CCCC3)CNC5=O)nc2)CC1 [MMM] |  | 200 nM | 134 nM | 141 nM | > 3000 nM | > 3000 nM | 
13 | C[C@@H]1CN(c2ccc(Nc3ncc4cc5n(c4n3)C3(CCCCC3)CNC5=O)nc2)C[C@H](C)N1C[C@@H](C)O [MM] | 1.8 nM | 100 nM | 73 nM | 77 nM | > 3000 nM | > 3000 nM | 
14 | O=C1NCC2(CCCCC2)n2c1cc1cnc(Nc3ccc(N4CCC(N5CCCCC5)CC4)cn3)nc12 [N] | 1 nM | 25 nM | 28 nM | 24 nM | > 3000 nM | 1440 nM | 
15 | CC1CN(c2ccc(Nc3ncc4cc5n(c4n3)C3(CCCCC3)CNC5=O)nc2)CC(C)N1CC1CC1 (centres unmarked) [OO] |  | 95 nM | 120 nM | 229 nM | > 3000 nM | > 3000 nM | 
16 | CN(C)C1CCN(c2ccc(Nc3ncc4cc5n(c4n3)C3(CCCCC3)CNC5=O)nc2)CC1 [O] |  | 40 nM | 56 nM | 29 nM | > 3000 nM | 2670 nM | 
17 | CC(=O)c1c(C)c2cnc(Nc3ccc(N4CCNCC4)cn3)nc2n(C2CCCC2)c1=O [PD0332991, palbociclib] |  |  |  |  |  |  | cytotoxic / chemosensitizing effect in combination with various camptothecin derivatives (in words) [6]: low chemosensitizing activity
18 | C[C@@H]1CN(c2ccc(Nc3ncc4cc5n(c4n3)C3(CCCCC3)CNC5=O)nc2)C[C@H](C)N1 [P] | 3.3 nM | 30 nM | 60 nM | 43 nM | > 3000 nM | > 3000 nM | 
19 | C[C@H]1CN(c2ccc(Nc3ncc4cc5n(c4n3)C3(CCCCC3)CNC5=O)nc2)CCN1C [R] | 0.5 nM | 70 nM | 36 nM | 50 nM | > 3000 nM | 2630 nM | 
20 | CN(C)C1CCN(c2ccc(Nc3ncc4cc5n(c4n3)C3(CCCCC3)CNC5=O)nn2)CC1 [SS] | 0.8 nM | 80 nM | 94 nM | 53 nM | 2950 nM | 1660 nM | 
21 | C[C@@H]1CN(c2ccc(Nc3ncc4cc5n(c4n3)C3(CCCCC3)CNC5=O)nc2)CCN1 [V] | 2.9 nM | 70 nM | 50 nM | 29 nM | > 3000 nM | 1350 nM | 
22 | CN(C)C1CCN(c2ccc(Nc3ncc4cc5n(c4n3)C3(CCCC3)CNC5=O)nc2)CC1 [YY] | 4.6 nM | 175 nM | 257 nM | 581 nM |  |  | 
23 | C[C@H](O)CN1[C@H](C)CN(c2ccc(Nc3ncc4cc5n(c4n3)C3(CCCCC3)CNC5=O)nc2)C[C@@H]1C [Z] | 3.2 nM | 110 nM | 141 nM | 54 nM |  |  | 
24 | Cn1cnc2c(NCc3ccccc3)nc(NCCO)nc21 [olomoucine] |  |  |  |  |  |  | cytotoxic effect in combination with topotecan (in words) [6]: synergistic cytotoxic effect; cytotoxic / chemosensitizing effect in combination with various camptothecin derivatives (in words) [6]: synergistic cytotoxic effect
25 | CC[C@H](CO)Nc1nc(NCc2ccccc2)c2ncn(C(C)C)c2n1 [roscovitine] |  |  |  |  |  |  | cytotoxic effect in combination with topotecan (in words) [6]: synergistic cytotoxic effect; cytotoxic / chemosensitizing effect in combination with various camptothecin derivatives (in words) [6]: synergistic cytotoxic effect
26 | CC[C@@]1(O)C(=O)OCc2c1cc1n(c2=O)Cc2cc3c(CN(C)C)c(O)ccc3nc2-1 [topotecan, reference compound] |  |  |  |  |  |  | activity toward NCI-H69 xenografts / tumor volume (in words) ([7]; Compound T alone 100 mg/kg, topotecan 0.6 mg/kg, combination with each Compound T dose (100, 50 or 10 mg/kg), FIG. 16): active and reduced tumor volumes; CR (tumor volume < 15 mm^3) [7, 8]: 0; LTS (individual tumor volume < volume endpoint at study time endpoint) [7, 8]: 1; MTTE ± SD (timepoint in days to reach designated tumor volume or time endpoint) [7, 8]: 52 ± 7 days; PR (%) (tumor volume ≥ 50% regression versus Day 0) [7, 8]: 0%; T-C (difference in days between MTTE of treatment and control groups) [7, 8]: 34 days; TFS (complete responder at study endpoint) [7, 8]: 0; survival versus vehicle or Compound T only (in words) ([7]; topotecan 0.6 mg/kg, with or without Compound T, FIG. 15): survived significantly longer than mice treated with vehicle or Compound T only
